How the values were obtained:
OT-I CD8^+ T-lymphocytes = test: Survival in the absence of IL-2 supplementation; format: cell-based, mouse; details: 0.5 mM
Experimental: OT-I CD8^+ T-lymphocytes were incubated with target and control cells for 4 hours. n=3 mice per condition. […]
Cells were counted on an ADAM-MC automated cell counter (NanoEnTek) and viability was assessed by the exclusion of propidium iodide. Cell volume was determined using a Z2 Coulter counter (Beckman Coulter).

human CD8^+ T cells = test: Experiments with human CD8+ T cells (CCR7, CD45RO flow cytometry); format: cell-based; details: 14 days; 600 μM S-2HG-octyl ester or 800 μM R-2HG-octyl ester versus vehicle
Experimental: Numbers in dot plots represent the percentage of cells present in the corresponding quadrant defined by CCR7 and CD45RO expression.
Human CD8^+ T cells were magnetically isolated from blood of healthy donors after gradient centrifugation. Incubation with microbeads conjugated to anti-human CD8 antibodies (Miltenyi 130-097-057) was followed by magnetic bead isolation on a MACS column. Purified human CD8^+ T cells were activated with αCD3 and αCD28 coated beads (Dynabeads, 111.61D) and expanded in the presence of recombinant human IL-2 (30 Ul/mL, Roche 11011456001).
Cells were stained and acquired on a Fortessa (BD Biosciences). The following fluorophores and fluorophore-conjugated antibodies were used: anti-CD62L (Biolegend, MEL-14), anti-CD44 (Biolegend, IM7), anti-CD8a (Biolegend, 53-6.7), anti-CD45.1 (Biolegend, A20), anti-CD45.2 (Biolegend, 104), anti-CD127 (Biolegend, A7R34), anti-KLRG1 (Biolegend, 2F1/KLRG1), anti-CD19 (Biolegend, 6D5), anti-Bcl-2 (Biolegend, BCL/10C4), Eomes (eBioscience, Danlimag), PD-1 (Biolegend, 29F.1A12), […], H-2Kb/SIINFEKL Pentamer-PE (Proimmune, F093-2A), CFSE (Life Technologies), LIVE/DEAD Violet (Life Technologies), PI-AnnexinV (Biolegend, 640928), anti-Bcl-xl-PE (Cell Signalling Technologies, 54H6). For staining of nuclear-located marker Eomes, the Transcription Factor Staining Buffer Set (eBioscience) was used, according to the manufacturer's instructions. For staining of intracellular cytokines, OT-I cells were re-stimulated with SIINFEKL peptide for 4 h with GolgiStop solution (BD). For ^1H-NMR experiments, CD8^+ T-lymphocytes were sorted from total splenocytes by immunostaining with anti-mouse CD8-AF647 (Biolegend) on a MoFlo (Beckman Coulter). Cells were then activated and cultured as described above. For staining of human T cells, CD8^+ T cells were incubated at 37 C for 30 minutes in the presence of anti-CCR7 antibody (eBioscience 12-1979-41), followed by staining with anti-CD45RO antibody (Biolegend, UCHL1).
For experiments with human CD8^+ T cells, cells were magnetically isolated, activated and plated at a concentration of 1×10^6 cells per mL in the presence of 30 UI/mL of recombinant human IL-2. […] On day 14, the surface expression of CCR7 and CD45RO on alive CD8^+ cells was measured by flow cytometry.

HIF-1α = test: Immunoblot of nuclear fractions for HIF-1α in treated CD8+ T-lymphocytes; format: cell-based, mouse; details: for abundance of HIF-1α protein at 7 days of continuous treatment: 0.5 mM
Experimental: (§1) FIG. 6A showns immunoblot analysis for HIF-1α, HDAC1, phospho-PDH E1α (S232) and total PDH-E1α in response to increasing concentrations of S-2HG-octyl ester or R-2HG-octyl ester, or 10 mM of the free acid forms of S-2HG or R-2HG for 16 hours. Cells were activated for 48 h with αCD3+αCD28 antibodies and then expanded for a further 4 days in the presence of IL-2 followed by treatment with the indicated concentration of S-2HG-octyl ester or R-2HG octyl ester, or 10 mM of the free acid forms of S-2HG or R-2HG for 16 hours. The arrow indicates HIF-1α protein.
The arrow indicates HIF-2a protein.
(§2) Nuclear and cytosolic fractions were prepared from cells with the NE-PER kit (Thermo Scientific) and separated by SDS-PAGE. Proteins were transferred to PVDF membranes and then blocked in 5% milk prepared in phosphate-buffered saline (PBS) plus 0.05% Tween 20. Membranes were then incubated with primary antibodies overnight at 4° C. and horseradish peroxidase (HRP)-conjugated secondary antibodies for 1 h the next day. The following primary antibodies were used at a dilution of 1:1000: HIF1α (Novus), HIF2α (Novus), PDH-E1α (Abcam), PDH-E1α pS232 (Calbiochem), LaminB1 (Abcam), HDAC1 (Abcam), β-tubulin (Abcam), 4E-BP1 (Cell Signalling), phospho-4E-BP1 (S65) (Cell Signalling), phospho-4E-BP1 (T37/T46) (Cell Signalling) S6K (Cell Signalling), phopho-S6K (T389) (Cell Signalling), phopho-S6K (S371) (Cell Signalling).

CD8^+ T-lymphocytes = test: Flow cytometry of CD44 and CD62L surface expression; format: cell-based, mouse; details: for CD62L effect when treating CD62L^low CD44^high effector cells: 0.5 mM added after 7 days of vehicle; for reversibility of the CD62L effect upon withdrawal of treatment: 0.5 mM for 7 days then washout, followed 9 more days; for formation of a CD62L^high CD44^high population / effect on CD62L when HIF-1α is absent / CD62L downregulation in HIF-2a null cells: 0.5 mM; for formation of a CD62L^high CD44^high population: with IL-2, antigen specific (OT-I) and polyclonal CD8+ T-lymphocytes; for effect on CD62L when HIF-1α is absent: Hif1α^−/− CD8+ T-lymphocytes; for CD62L downregulation in HIF-2a null cells: Hif2α^−/− CD8+ T-lymphocytes, versus wild type controls
Description: Data are representative of n=4 individual mice.
Data are representative of 3 mice per genotype.
Data are representative of 2 mice per genotype.
Data are representative of n=3 individual mice.
Cells were stained and acquired on a Fortessa (BD Biosciences). […] For staining of nuclear-located marker Eomes, the Transcription Factor Staining Buffer Set (eBioscience) was used, according to the manufacturer's instructions. For staining of intracellular cytokines, OT-I cells were re-stimulated with […] peptide for 4 h with GolgiStop solution (BD). For ^1H-NMR experiments, CD8^+ T-lymphocytes were sorted from total splenocytes by immunostaining with anti-mouse CD8-AF647 (Biolegend) on a MoFlo (Beckman Coulter). Cells were then activated and cultured as described above.

PDH-E1α = test: Immunoblot for phospho-PDH E1α (S232) in treated CD8+ T-lymphocytes; format: cell-based, mouse; details: 16 hours treatment
Experimental: as §1, §2

SMILES | ability to survive in the absence of IL-2 supplementation (OT-I CD8^+ T-lymphocytes) | expression of CCR7 (human CD8^+ T cells) | expression of CD45RO (human CD8^+ T cells) | abundance of HIF-1α protein at 7 days of continuous treatment (HIF-1α) | CD62L effect when treating CD62L^low CD44^high effector cells (CD8^+ T-lymphocytes) | reversibility of the CD62L effect upon withdrawal of treatment (CD8^+ T-lymphocytes) | formation of a CD62L^high CD44^high population (CD8^+ T-lymphocytes) | effect on CD62L when HIF-1α is absent (CD8^+ T-lymphocytes) | CD62L downregulation in HIF-2a null cells (CD8^+ T-lymphocytes) | phosphorylation of PDH-E1a (PDH-E1α) | HIF-1α stabilization (HIF-1α; increasing concentrations of octyl ester, 16 hours, activated CD8+ T-lymphocytes)
CCCCCCCCOC(=O)[C@H](O)CCC(=O)O [R-2HG-octyl ester] | elevated ability to survive | induced the expression | induced the expression | increase in abundance is seen | does not occur | reversible | promotes the formation | masks the effects | inhibits CD62L downregulation | increased | –
CCCCCCCCOC(=O)[C@@H](O)CCC(=O)O [S-2HG-octyl ester, S-2HG octyl ester] | elevated ability to survive | induced the expression | induced the expression | increase in abundance is seen | does not occur | reversible | promotes the formation | masks the effects | inhibits CD62L downregulation | increased | stabilized
